In patent US20170121344A1 (Siga Technologies, Inc., priority 2009, published 2017):
Where two headings read alike, the source gives them in different places.

Tested on: Dengue-2 (Strain New Guinea C)
Experiment: Viral yield assay against Dengue-2 in Vero cells
Type: cell-based, Dengue virus
Conditions: Dengue virus
Method in brief: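 Virus yield, titered on Vero cells from cultures harvested at 48 h post infection, gave the EC50. Cultures were infected at MOI 0.1 with dengue-2 and treated with compound or DMSO at 37° C. DENV-1 and DENV-4 were determined similarly.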

[1] = Vero cells, MOI 0.1, harvested 48 hours post infection, read-out: Activity (EC50 class) against Dengue-2 Virus in Vero cells
[2] = Vero, 48 h, read-out: Activity (EC50 class) against Dengue-2 Virus in Vero cells
[3] = DENV2, viral yield assay, Vero cells, MOI 0.1, 48 hours post infection, read-out: Activity (EC50 in μM) DENV-2
[4] = DENV2, Vero, 48 h, read-out: Activity (EC50 in μM) DENV-2

Compound	EC50 [1]	further results
CN1CCc2nc3sc(C(=O)Nc4ccc(OC(F)(F)F)cc4)c(N)c3cc2C1 [Compound 30, 3-Amino-6-methyl-5,6,7,8-tetrahydro-thieno[2,3-b][1,6]naphthyridine-2-carboxylic acid (4-trifluoromethoxy-phenyl)-amide]	< 5 µM	–
CC1(C)Cc2c(c(N3CCOCC3)nc3sc(C(N)=O)c(N)c23)CO1 [Compound 169, 1-Amino-8,8-dimethyl-5-morpholin-4-yl-8,9-dihydro-6H-7-oxa-3-thia-4-aza-cyclopenta[a]naphthalene-2-carboxylic acid amide]	–	EC50 [2]: > 25 µM
Nc1c(C(=O)Nc2cccc(C(F)(F)F)c2)sc2nc(-c3cccs3)ccc12 [Compound 3, 3-Amino-6-thiophen-2-yl-thieno[2,3-b]pyridine-2-carboxylic acid (3-trifluoromethyl-phenyl)-amide]	< 5 µM	–
Cc1nc2c(sc3nc4c(cc32)COC(C)(C)C4)c(=O)n1CCN1CCOCC1 [Compound 231, 3,8,8-Trimethyl-2-(2-morpholin-4-yl-ethyl)-8,9-dihydro-2H,6H-7-oxa-11-thia-2,4,10-triaza-benzo[b]fluoren-1-one]	–	EC50 [2]: > 25 µM
Nc1c(C(=O)Nc2nnc(-c3ccccc3)s2)sc2nc3c(cc12)CCCC3 [Compound 53, 3-Amino-5,6,7,8-tetrahydro-thieno[2,3-b]quinoline-2-carboxylic acid (5-phenyl-[1,3,4]thiadiazol-2-yl)-amide]	< 5 µM	–
Cc1cc(C)c2c(N)c(C(=O)Nc3cc(C(F)(F)F)ccc3Cl)sc2n1 [Compound 186, 3-Amino-4,6-dimethyl-thieno[2,3-b]pyridine-2-carboxylic acid (2-chloro-5-trifluoromethyl-phenyl)-amide]	> 25 µM	–
COc1cccc(-c2ccc3c(N)c(C(=O)Nc4ccc(C)c(Cl)c4)sc3n2)c1 [Compound 544, 3-amino-N-(3-chloro-4-mehtyl-phenyl)-6-(3-methoxyphenyl)thieno[2,3-b] pyridine-2-carboxamide]	–	EC50 [3]: < 5 µM
Nc1c(C(=O)Nc2ccc(F)cc2)sc2nc3c(cc12)CCCCC3 [Compound 116, 3-Amino-6,7,8,9-tetrahydro-5H-1-thia-10-aza-cyclohepta[f]indene-2-carboxylic acid (4-fluoro-phenyl)-amide]	–	EC50 [2]: > 25 µM
COc1ccc(-c2ccc3c(N)c(C(=O)Nc4ccc5c(c4)OCO5)sc3n2)cc1OC [Compound 580, 3-amino-N-(1,3-benzodioxol-5-yl)-6-(3,4-dimethoxyphenyl)thieno[2,3-b] pyridine-2-carboxamide]	–	EC50 [4]: < 5 µM
Nc1c(C(=O)Nc2ccc([N+](=O)[O-])cc2)sc2nc3c(cc12)CCCC3 [Compound 228, 3-Amino-5,6,7,8-tetrahydro-thieno[2,3-b]quinoline-2-carboxylic acid (4-nitro-phenyl)-amide]	> 25 µM	–
O=c1[nH]cnc2c1sc1nc(-c3cccs3)ccc12 [Compound 412, 7-(thiophen-2-yl)pyrido[3′,2′:4,5]thieno [3,2-d]pyrimidin-4(3H)-one]	–	EC50 [3]: 5 to 25 µM
COc1ccc(NC(=O)c2sc3nc4c(cc3c2N)CCCCC4)cc1 [Compound 118, 3-Amino-6,7,8,9-tetrahydro-5H-1-thia-10-aza-cyclohepta[f]indene-2-carboxylic acid (4-methoxy-phenyl)-amide]	> 25 µM	–
COc1ccc(Cl)cc1NC(=O)c1sc2nc(-c3ccc4c(c3)OCO4)ccc2c1N [Compound 594, 3-amio-6-(1,3-benzodioxol-5-yl)-N-(5-chloro-2-methoxy-phenyl)thieno[2,3-b] pyridine-2-carboxamide]	–	EC50 [3]: < 5 µM
N#Cc1ccc(NC(=O)c2sc3nc(N)c(C#N)cc3c2N)cc1 [Compound 152, 3,6-Diamino-5-cyano-thieno[2,3-b]pyridine-2-carboxylic acid (4-cyano-phenyl)-amide]	> 25 µM	–
Nc1c(C(=O)Nc2cccc(C(F)(F)F)c2)sc2nc(-c3ccncc3)ccc12 [Compound 440, 3-amino-6-(4-pyridyl)-N-[3-(trifluoromethyl)phenyl]thieno[2,3-b] pyridine-2-carboxamide]	–	EC50 [3]: 5 to 25 µM
CN1CCc2nc3sc(C(=O)Nc4ccc(C(F)(F)F)cc4)c(N)c3cc2C1 [Compound 42, 3-Amino-6-methyl-5,6,7,8-tetrahydro-thieno[2,3-b][1,6]naphthyridine-2-carboxylic acid (4-trifluoromethyl-phenyl)-amide]	< 5 µM	–
O=c1[nH]cnc2c1sc1nc(N3CCOCC3)c3c(c12)CCCC3 [Compound 182, 5-Morpholin-4-yl-1,2,3,4-tetrahydro-9H-7-thia-6,9,11-triaza-benzo[c]fluoren-8-one]	–	EC50 [2]: > 25 µM
Nc1c(C(=O)Nc2ccc(Cl)cc2)sc2nc(-c3ccc4c(c3)OCO4)ccc12 [Compound 601, 3-amino-6-(1,3-benzodioxol-5-yl)-N-(4-chlorophenyl)thieno[2,3-b]pyridine-2-carboxamide]	–	EC50 [3]: < 5 µM

Compound	EC50 [1]	further results
COCc1cc(C)nc2sc(C(=O)Nc3cc(Cl)ccc3Cl)c(N)c12 [Compound 211, 3-Amino-4-methoxymethyl-6-methyl-thieno[2,3-b]pyridine-2-carboxylic acid (2,5-dichloro-phenyl)-amide]	> 25 µM	–
CCN1CCc2nc3sc(C(=O)Nc4ccccc4OC(F)(F)F)c(N)c3cc2C1 [Compound 40, 3-Amino-6-ethyl-5,6,7,8-tetrahydro-thieno[2,3-b][1,6]naphthyridine-2-carboxylic acid (2-trifluoromethoxy-phenyl)-amide]	< 5 µM	–
COc1ccc(-c2cc(-c3ccccc3)nc3sc(C(N)=O)c(N)c23)cc1 [Compound 125, 3-Amino-4-(4-methoxy-phenyl)-6-phenyl-thieno[2,3-b]pyridine-2-carboxylic acid amide]	> 25 µM	–
Nc1c(C(=O)Nc2ccccc2F)sc2nc(-c3ccc4c(c3)OCO4)ccc12 [Compound 538, 3-amino-6-(1,3-benzodioxol-5-yl)-N-(2-fluorophenyl)thieno[2,3-b]pyridine-2-carboxamide]	–	EC50 [3]: < 5 µM
Cc1csc(NC(=O)c2sc3nc4c(cc3c2N)CN(C)CC4)n1 [Compound 39, 3-Amino-6-methyl-5,6,7,8-tetrahydro-thieno[2,3-b][1,6]naphthyridine-2-carboxylic acid (4-methyl-thiazol-2-yl)-amide]	< 5 µM	–
COc1ccc(NC(=O)c2sc3nc(-c4cccs4)ccc3c2N)cc1OC [Compound 444, 3-amino-N-(3,4-dimethoxyphenyl)-6-(2-thienyl)thieno[2,3-b]pyridine-2-carboxamide]	–	EC50 [4]: < 5 µM
COc1ccccc1-c1cc(-c2ccccc2)c2c(N)c(C(=O)NC3CC3)sc2n1 [Compound 67, 3-Amino-6-(2-methoxy-phenyl)-4-phenyl-thieno[2,3-b]pyridine-2-carboxylic acid cyclopropylamide]	5 to 25 µM	–
CCCCN(CCCC)C(=O)c1sc2nc(N3CCOCC3)c3c(c2c1N)CC(C)(C)OC3 [Compound 246, 1-Amino-8,8-dimethyl-5-morpholin-4-yl-8,9-dihydro-6H-7-oxa-3-thia-4-aza-cyclopenta[a]naphthalene-2-carboxylic acid dibutylamide]	> 25 µM	–
Nc1c(C(=O)N2CCOCC2)sc2nc3c(cc12)CCCC3 [Compound 187, (3-Amino-5,6,7,8-tetrahydro-thieno[2,3-b]quinolin-2-yl)-morpholin-4-yl-methanone]	–	EC50 [2]: > 25 µM
Cc1cc(C)c2c(C)c(C(=O)Nc3ccc4c(c3)OCCO4)sc2n1 [Compound 396, N-(2,3-dihydro-1,4-benzodioxin-6-yl)-3,4,6-trimethyl-thieno[2,3-b]pyridine-2-carboxamide]	–	EC50 [3]: 5 to 25 µM
CN1CCc2nc3sc(C(=O)NCc4ccc5c(c4)OCO5)c(N)c3cc2C1 [Compound 269, 3-Amino-6-methyl-5,6,7,8-tetrahydro-thieno[2,3-b][1,6]naphthyridine-2-carboxylic acid (benzo[1,3]dioxol-5-ylmethyl)-amide]	> 25 µM	–
CC(C)N1CCc2nc3sc(C(=O)Nc4cccc(F)c4)c(N)c3cc2C1 [Compound 24, 3-Amino-6-isopropyl-5,6,7,8-tetrahydro-thieno[2,3-b][1,6]naphthyridine-2-carboxylic acid (3-fluoro-phenyl)-amide]	< 5 µM	–
CC(=O)c1ccc(NC(=O)c2sc3nc(C)cc(C)c3c2N)cc1 [Compound 120, 3-Amino-4,6-dimethyl-thieno[2,3-b]pyridine-2-carboxylic acid (4-acetyl-phenyl)-amide]	> 25 µM	–
Nc1c(C(=O)Nc2ccc3c(c2)OCO3)sc2nc(-c3ccc(F)cc3)ccc12 [Compound 608, 3-amino-N-(1,3-benzodioxol-5-yl)-6-(4-fluorophenyl)thieno[2,3-b]pyridine-2-carboxamide]	–	EC50 [4]: < 5 µM
Cc1cc(C)c2c(N)c(C(=O)Nc3ccc(S(N)(=O)=O)cc3)sc2n1 [Compound 183, 3-Amino-4,6-dimethyl-thieno[2,3-b]pyridine-2-carboxylic acid (4-sulfamoyl-phenyl)-amide]	> 25 µM	–
COc1ccc(-c2ccc3c(N)c(C(=O)Nc4ccc(Br)cc4C)sc3n2)cc1OC [Compound 578, 3-amino-N-(4-bromo-2-methyl-phenyl)-6-(3,4-dimethoxyphenyl)thieno[2,3-b] pyridine-2-carboxamide]	–	EC50 [3]: < 5 µM
Nc1c(C(=O)Nc2ccc(Br)cc2)sc2nc(-c3cccnc3)ccc12 [Compound 435, 3-amino-N-(4-bromophenyl)-6-(3-pyridyl)thieno[2,3-b]pyridine-2-carboxamide]	–	EC50 [3]: < 5 µM
COCc1cc(C)nc2sc(C(=O)Nc3cc(C)ccc3F)c(N)c12 [Compound 242, 3-Amino-4-methoxymethyl-6-methyl-thieno[2,3-b]pyridine-2-carboxylic acid (2-fluoro-5-methyl-phenyl)-amide]	> 25 µM	–
